Results as given in patent US20190375786A1, “STABLE PEPTIDES AND METHODS OF USE THEREOF” (Fred Hutchinson Cancer Research Center, priority 2016, published 2019).
Positions of bridges follow the written chain, without caps; N, C: chain ends. Residues, ends and D or L forms follow the SMILES beside them.

Columns and labels:
[1] = target: trypsin (Sus scrofa, UniProt P00761); test: Trypsin digestion resistance of soluble peptide, RP-HPLC; type: in vitro ADME, porcine; design: purchased Sigma Aldrich 6567; conditions: 30 minutes at 37.5° C.; for Resistance to Trypsin (500 U/ml): 500 U/ml trypsin, HPLC peak vs untreated peptide
Chain of trypsin (P00761 9-231): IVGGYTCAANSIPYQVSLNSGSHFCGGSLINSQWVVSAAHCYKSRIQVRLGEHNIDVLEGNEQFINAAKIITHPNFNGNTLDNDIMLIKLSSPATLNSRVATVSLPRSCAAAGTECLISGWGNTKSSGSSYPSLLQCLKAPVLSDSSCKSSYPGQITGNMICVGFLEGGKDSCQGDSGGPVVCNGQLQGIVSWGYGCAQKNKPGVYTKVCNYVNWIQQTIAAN
Experimental: (§1) Peptides were first suspended in 500 μl of ddH2O to a stock concentration of 2 mg/ml. Reactions were prepared by adding 12.5 μg of peptide from the stock solution to a 10 mM solution of DTT in PBS and allowed to incubate at room temperature for 30 minutes. Other reactions were prepared with 12.5 μg peptide and 500 U/ml trypsin in 25 mM Tris/75 mM NaCl buffer (pH 7.0) and incubated for 30 minutes at 37.5° C. These reactions were then quenched with 5 μg of soybean trypsin inhibitor (I) and, in some cases, 10 mM dithiothreitol (DTT). Reversed phase HPLC (RP-HPLC) was run on samples using an Agilent 1260 HPLC equipped with a C-18 Poroshell 120B column. Sample were analyzed by a gradient method with a mobile phase of Solvent A (water with 0.1% TFA) and Solvent B (acetonitrile with 0.1% TFA). Solvent B was ramped up from 5%-45% of the mobile phase over a period of 10 minutes. For testing pepsin digestion resistance, reactions were prepared with 12.5 μg peptide with or without 500 U/ml pepsin in simulated gastric fluid (SGF; pH 1.05; […] sodium chloride in 0.7% (v/v) hydrochloric acid) and were incubated for 30 minutes at 37.5° C. For testing temperature resistance, peptides were incubated at 70° C., 75° C., or 100° C. for one hour in 0.5 mM PBS, pelleted, and then the supernatant was analyzed by HPLC.
(§2) This example illustrates peptide stability in biological conditions including in the presence of reducing agents, proteases, oxidative conditions, acidic conditions, and simulated gastric fluids. […] Various peptides were suspended in 500 μl of ddH2O at a stock concentration of 2 mg/ml. This was then diluted in accord with the reaction conditions to prevent adverse buffering effects. Reactions were prepared with 12.5 μg peptide dissolved in solution and, in some samples, additionally suspended in a 10 mM solution of DTT, simulated gastric fluid (pH 1.05; […] sodium chloride in 0.7% (v/v) hydrochloric acid), 500 U pepsin (5000 U/ml pepsin), 50 U trypsin (500 U/ml trypsin) with 1 mg/ml inhibitor in PBS, or a combination of any of these conditions. All protease reactions were incubated for 30 min at room temperature and then quenched. Pepsin reactions were quenched by adding Tris base to a final concentration of 0.075 M. Trypsin reactions were quenched by adding excess soybean trypsin inhibitor. RP-HPLC was then run on samples using an Agilent 1260 HPLC equipped with a C-18 Poroshell 120B column. Sample were analyzed by a gradient method with a mobile phase of Solvent A (water with 0.1% TFA) and Solvent B (acetonitrile with 0.1% TFA). Solvent B was ramped up from 5%-45% of the mobile phase over a period of 10 minutes.
Soluble peptides were exposed to 500 U/mL porcine trypsin and analyzed by HPLC. Protease resistance was also assessed by using SDPR-displaying peptides. The SDPR vector is similar to the a surface display GFP FasL(SDGF) vector, but contains a C-terminal 6×His tag (SEQ ID NO: 180) and all basic or aromatic amino acid residues on the stalk removed. Protease resistance is then tested by incubation of cells displaying peptides with trypsin or chymotrypsin, followed by incubation in 10 mM DTT, and staining with an anti-6×His fluorophore-labeled antibody (“6×His” disclosed as SEQ ID NO: 180). If peptides are uncleaved, they retain the His tag and are stained with by the antibody. A control protease-sensitive knottin peptide (SK) was used as a positive control. Cells displaying peptides were treated with up to 40 μg/ml trypsin or chymotrypsin.
FIG. 21 illustrates high performance liquid chromatograph (HPLC) traces of peptides after trypsin digestion. […] The assay was carried out by reconstituting 1 mg porcine trypsin (Sigma Aldrich 6567) in 1 mL of 1 mM HCl. Trypsin was provided at a concentration of 10,000 u/mL and thus, 5 μl of stock solution was equivalent to using 50 U of trypsin in each reaction. Soybean trypsin inhibitor (SA T9128) was prepared at 1 mg/mL of in H2O. […]

[2] = target: pepsin (Sus scrofa, UniProt P00791); test: Pepsin digestion resistance in simulated gastric fluid, RP-HPLC; type: in vitro ADME, porcine; design: purchased Sigma Aldrich P7012; conditions: for Resistance to Pepsin (500 U/ml): 500 U/ml pepsin in SGF pH 1.05, 30 minutes at 37.5° C., HPLC peak vs untreated peptide
Chain of pepsin (P00791 60-385): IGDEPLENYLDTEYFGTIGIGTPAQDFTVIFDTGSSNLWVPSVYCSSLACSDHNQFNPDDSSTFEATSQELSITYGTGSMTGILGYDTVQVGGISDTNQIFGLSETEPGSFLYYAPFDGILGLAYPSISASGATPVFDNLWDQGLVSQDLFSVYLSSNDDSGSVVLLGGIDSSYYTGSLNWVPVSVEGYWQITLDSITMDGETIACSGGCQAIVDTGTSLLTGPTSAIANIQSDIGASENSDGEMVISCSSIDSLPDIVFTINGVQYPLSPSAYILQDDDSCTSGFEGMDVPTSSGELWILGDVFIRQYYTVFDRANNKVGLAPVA
Experimental: Peptides were first suspended in 500 ul of ddH2O to a stock concentration of 2 mg/ml. Reactions were prepared by adding 12.5 ug of peptide from the stock solution to a 10 mM solution of DTT in PBS and allowed to incubate at room temperature for 30 minutes. Other reactions were prepared with 12.5 μg peptide with or without 500 U/ml pepsin in simulated gastric fluid (SGF; pH 1.05; […] sodium chloride in 0.7% (v/v) hydrochloric acid) and were incubated for 30 minutes at 37.5° C. Some reactions were quenched with a final concentration of 100 mM Tris base and 10 mM dithiothreitol (DTT). Some reactions were performed in all of the above components, including simulated gastric fluid, pepsin, Tris, and DTT (referred to as SPTD). Reversed phase HPLC (RP-HPLC) was run on samples using an Agilent 1260 HPLC equipped with a C-18 Poroshell 120B column. Sample were analyzed by a gradient method with a mobile phase of Solvent A (water with 0.1% TFA) and Solvent B (acetonitrile with 0.1% TFA). Solvent B was ramped up from 5%-45% of the mobile phase over a period of 10 minutes. Peptides were detected at an absorbance of 214 nm and 280 nm.
as §1, §2
FIG. 20 illustrates high performance liquid chromatograph (HPLC) traces of peptides after pepsin digestion. […]

| SMILES | Resistance to Trypsin (500 U/ml) [1] | Resistance to Pepsin (500 U/ml) [2] | resistance to trypsin digestion (in words) ([1]; 500 U/ml trypsin (50 U per reaction), HPLC) | resistance to pepsin digestion (in words) ([2]; 500 U/ml pepsin (50 U per reaction) in SGF, 30 minutes at 37.5° C., HPLC) |
| --- | --- | --- | --- | --- |
| CC[C@H](C)[C@H](NC(=O)[C@H](CCCNC(=N)N)NC(=O)[C@@H](NC(=O)[C@H](CO)NC(=O)CN)C(C)C)C(=O)N1CCC[C@H]1C(=O)N[C@H](C(=O)N[C@@H](CO)C(=O)N[C@H]1CSSC[C@@H]2NC(=O)[C@H](CCCCN)NC(=O)CNC(=O)[C@H](Cc3ccccc3)NC(=O)[C@H](CCCNC(=N)N)NC(=O)[C@H](CCSC)NC(=O)CNC(=O)[C@H](C)NC(=O)[C@H](CC(=O)O)NC(=O)[C@H](CCCCN)NC(=O)[C@@H]3CSSC[C@@H](C(=O)N[C@H](C(=O)N4CCC[C@H]4C(=O)N[C@@H](CCCCN)C(=O)O)[C@@H](C)O)NC(=O)[C@H](CC(=O)O)NC(=O)[C@H](CSSC[C@H](NC(=O)[C@H](CCC(N)=O)NC(=O)CNC(=O)[C@H](CO)NC(=O)[C@H](Cc4c[nH]cn4)NC(=O)[C@H](CCCCN)NC1=O)C(=O)N[C@@H](CC(C)C)C(=O)N[C@@H](CCCCN)C(=O)N1CCC[C@H]1C(=O)N3)NC(=O)[C@H](CCCCN)NC(=O)CNC(=O)[C@H](CC(N)=O)NC(=O)[C@H](CCSC)NC2=O)C(C)C [compound 24] (H-GSVRIPVSCKHSGQCLKPCKDAGMRFGKCMNGKCDCTPK-OH; disulfide 9-29, 15-34, 19-36) | Low (A peptide classified as low indicates that the majority (over 75%) of the HPLC peak of the treated peptide disappeared as compared to the HPLC peak of the untreated peptide) | High (A peptide classified as high indicates that the majority (at least 75%) of the HPLC peak of the treated peptide is still present as compared to the HPLC peak of the untreated peptide) | – | – |
| CSCC[C@@H]1NC(=O)[C@@H]2CSSC[C@H](NC(=O)[C@H](CCCCN)NC(=O)[C@@H](NC(=O)[C@H](CC(=O)O)NC(=O)[C@@H](NC(=O)[C@H](Cc3ccccc3)NC(=O)[C@H](CCC(N)=O)NC(=O)[C@H](CO)NC(=O)CN)[C@@H](C)O)C(C)C)C(=O)N[C@@H]([C@@H](C)O)C(=O)NCC(=O)N[C@@H](CO)C(=O)N[C@@H](CCCCN)C(=O)N[C@@H](CCC(N)=O)C(=O)N[C@H]3CSSC[C@H](NC(=O)[C@H](CCCCN)NC(=O)CNC(=O)[C@H](CC(N)=O)NC1=O)C(=O)N[C@@H](CCCNC(=N)N)C(=O)N[C@H](C(=O)N[C@@H](Cc1ccc(O)cc1)C(=O)N[C@@H](CO)C(=O)O)CSSC[C@H](NC(=O)[C@H](C(C)C)NC(=O)[C@@H]1CCCN1C(=O)[C@H](Cc1c[nH]c4ccccc14)NC3=O)C(=O)N[C@@H](CCCCN)C(=O)N[C@@H](CCC(N)=O)C(=O)N[C@@H](CCSC)C(=O)N[C@@H](Cc1ccccc1)C(=O)NCC(=O)N[C@@H](CCCCN)C(=O)N1CCC[C@H]1C(=O)N[C@@H](CC(N)=O)C(=O)NCC(=O)N[C@@H](CCCCN)C(=O)N2 [compound 12] (H-GSQFTDVKCTGSKQCWPVCKQMFGKPNGKCMNGKCRCYS-OH; disulfide 9-30, 15-35, 19-37) | Moderate (A peptide classified as medium indicates that about half (between 25% and 75%) of the HPLC peak of the treated peptide disappeared as compared to the HPLC peak of the untreated peptide) | High (A peptide classified as high indicates that the majority (at least 75%) of the HPLC peak of the treated peptide is still present as compared to the HPLC peak of the untreated peptide) | – | – |
| CSCC[C@@H]1NC(=O)[C@@H]2CSSC[C@H](NC(=O)[C@H](CCCCN)NC(=O)[C@@H](NC(=O)[C@H](CC(=O)O)NC(=O)[C@@H](NC(=O)[C@H](Cc3ccccc3)NC(=O)[C@H](CCC(N)=O)NC(=O)[C@H](CO)NC(=O)CN)[C@@H](C)O)C(C)C)C(=O)N[C@@H]([C@@H](C)O)C(=O)NCC(=O)N[C@@H](CO)C(=O)N[C@@H](CCCCN)C(=O)N[C@@H](CCC(N)=O)C(=O)N[C@H]3CSSC[C@H](NC(=O)[C@H](CCCCN)NC(=O)CNC(=O)[C@H](CC(N)=O)NC1=O)C(=O)N[C@@H](CCCNC(=N)N)C(=O)N[C@H](C(=O)N[C@@H](Cc1ccc(O)cc1)C(=O)N[C@@H](CO)C(=O)O)CSSC[C@H](NC(=O)[C@H](C(C)C)NC(=O)[C@@H]1CCCN1C(=O)[C@H](Cc1c[nH]c4ccccc14)NC3=O)C(=O)N[C@@H](CCCCN)C(=O)N[C@@H](CCC(N)=O)C(=O)N[C@@H](CCSC)C(=O)N[C@@H](Cc1ccccc1)C(=O)NCC(=O)N[C@@H](CCCCN)C(=O)N1CCC[C@H]1C(=O)N[C@@H](CC(N)=O)C(=O)NCC(=O)N[C@@H](CCCCN)C(=O)N2 [SEQ ID NO: 12] (H-GSQFTDVKCTGSKQCWPVCKQMFGKPNGKCMNGKCRCYS-OH; disulfide 9-30, 15-35, 19-37) | – | – | moderately resistant | highly resistant |
| CC[C@H](C)[C@@H]1NC(=O)[C@@H]2CSSC[C@H](NC(=O)[C@H](CCCCN)NC(=O)[C@@H](NC(=O)[C@H](CC(N)=O)NC(=O)[C@@H](NC(=O)[C@H](CC(=O)O)NC(=O)[C@@H](NC(=O)[C@H](CCC(N)=O)NC(=O)[C@H](CO)NC(=O)CN)[C@@H](C)CC)[C@@H](C)O)C(C)C)C(=O)N[C@@H](CO)C(=O)NCC(=O)N[C@@H](CO)C(=O)N[C@@H](CO)C(=O)N[C@@H](CCCCN)C(=O)N[C@H]3CSSC[C@H](NC(=O)[C@H](CCCNC(=N)N)NC(=O)CNC(=O)[C@H](CC(N)=O)NC1=O)C(=O)N[C@@H]([C@@H](C)O)C(=O)N[C@H](C(=O)N[C@@H](Cc1ccc(O)cc1)C(=O)N1CCC[C@H]1C(=O)O)CSSC[C@H](NC(=O)[C@H]([C@@H](C)CC)NC(=O)[C@H](CCCCN)NC(=O)[C@H](C(C)C)NC3=O)C(=O)N[C@@H]([C@@H](C)CC)C(=O)N[C@@H](CC(=O)O)C(=O)N[C@@H](CCCNC(=N)N)C(=O)N[C@@H](Cc1ccc(O)cc1)C(=O)N[C@@H](CC(N)=O)C(=O)N[C@@H]([C@@H](C)O)C(=O)N[C@@H](CCCNC(=N)N)C(=O)NCC(=O)N[C@@H](C)C(=O)N[C@@H](CCCCN)C(=O)N2 [compound 35] (H-GSQIDTNVKCSGSSKCVKICIDRYNTRGAKCINGRCTCYP-OH; disulfide 10-31, 16-36, 20-38) | Low (A peptide classified as low indicates that the majority (over 75%) of the HPLC peak of the treated peptide disappeared as compared to the HPLC peak of the untreated peptide) | Low (A peptide classified as low indicates that the majority (over 75%) of the HPLC peak of the treated peptide disappeared as compared to the HPLC peak of the untreated peptide) | – | – |
